The text below walks through data of patent US20220324835A1 (Nurix Therapeutics, Inc., priority 2018, published 2022).

In test [1] the target is T1, Cbl-b (Homo sapiens, UniProt Q13191). The test is described as follows: Cbl-b inhibition assay (Cbl-b activity assay, FRET, Biological Example 1; 100 mM NaCl, 60 nM Src kinase). It is filed as biochemical. As to conditions: upper bound stated in text lists; read-out: IC50 values in the Cbl-b inhibition assay of Biological Example 1. The source says:
FIG. 1A and FIG. 1B show a series of diagrams depicting the activity assay utilized to assay inhibition of Cbl-b activity by a Cbl-b inhibitor. FIG. 1A: The activity assay mixture comprises an N-terminal biotinylated Avi-tagged Cbl-b, an E2 enzyme (i.e., UbcH5B) irreversibly conjugated to Bodipy-Fluorescein tagged ubiquitin (i.e., UbcH5B-Ub), a Src kinase, streptavidin-terbium, and assay buffer. Phosphorylation of Cbl-b by the Src kinase allows UbcH5B-Ub to bind to Cbl-b and bring the Bodipy-Fluorescein tagged ubiquitin in proximity to the streptavidin-terbium bound to the N-terminal biotinylated Avi-tagged Cbl-b. […] FIG. 1B: In the presence of a Cbl-b inhibitor, such as one described herein, Cbl-b is unable to bind UbcH5B-Ub. The lack of a FRET signal indicates Cbl-b is inhibited by the Cbl-b inhibitor. Ub indicates ubiquitin; N-Avi indicates biotinylated Avi-tag at the N-terminus of Cbl-b; inhibitor indicates Cbl-b inhibitor.
The lack of a FRET signal indicates Cbl-b is inhibited by the Cbl-b inhibitor. In FIG. 1A and FIG. 1B, Ub indicates ubiquitin; N-Avi indicates biotinylated Avi-tag at the N-terminus of Cbl-b; and inhibitor indicates Cbl-b inhibitor.

In test [2] the target is T1, Cbl-b. The test is described as follows: Cbl-b activity assay (Cbl-b inhibition assay), TR-FRET of Cbl-b interaction with UbcH5B-Ub. Type of test: biochemical. The settings on record: assay buffer with 100 mM NaCl, 60 nM Src kinase; read-out: Cbl-b activity IC50. As for the experimental part:
The ability of candidate compounds to inhibit Cbl-b activity was measured by monitoring the interaction of Cbl-b with UbcH5B-Ub in the presence of the candidate compound.
Fluorescently labeled UbcH5B-Ub was prepared by conjugating ubiquitin (Ub), labeled at its N-terminus with Bodipy-Fluorescein, to UbcH5B, an E2 enzyme, harboring a cysteine to lysine mutation at position 85. […] After incubation in the presence of the candidate compound, the plate was incubated for an additional 1.5 hours in the presence of 60 nM Src kinase with 1 mM ATP and 5 mM MgCl2 (final concentrations). […] The plate was incubated for 1 hour.
Column marked with an asterisk (*) were tested as described above with assay buffer containing 50 mM NaCl instead of 100 mM NaCl and 30 nM Src kinase instead of 60 nM Src kinase. The resulting data for the Cbl-b binding assay was solvent corrected and double referenced prior to analysis. All data were globally fit to a steady-state affinity and kinetic binding model where applicable). Fit parameters were derived from a 1:1 binding model using the Biacore T200 Evaluation Software V2.0 (GE Healthcare) (Table 2).
For orientation: TR-FRET usually uses a lanthanide donor and a delayed reading to cut background.

SMILES strings stand for the structures.

For orientation: IC50 means the concentration at which inhibition is half-maximal.

T1 sequence (Q13191 36-427): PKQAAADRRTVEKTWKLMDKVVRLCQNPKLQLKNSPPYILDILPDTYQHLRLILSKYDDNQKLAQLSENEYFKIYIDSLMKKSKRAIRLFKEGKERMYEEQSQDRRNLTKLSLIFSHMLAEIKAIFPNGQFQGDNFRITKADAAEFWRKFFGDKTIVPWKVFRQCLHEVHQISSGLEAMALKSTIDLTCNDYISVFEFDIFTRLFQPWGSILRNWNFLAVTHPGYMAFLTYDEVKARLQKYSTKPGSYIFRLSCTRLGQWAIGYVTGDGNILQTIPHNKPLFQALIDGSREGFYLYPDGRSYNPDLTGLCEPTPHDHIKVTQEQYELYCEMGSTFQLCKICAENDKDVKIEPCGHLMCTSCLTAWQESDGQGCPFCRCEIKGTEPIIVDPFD

Take `C[C@H](Sc1nncn1C)c1cccc(NC(=O)c2cc(C(=O)N3CCC(S(C)(=O)=O)C3)ccn2)c1` (some centres unmarked) [Compound 158, N-(3-((A)-1-((4-methyl-4H-1,2,4-triazol-3-yl)thio)ethyl)phenyl)-4-(3-(methylsulfonyl)pyrrolidine-1-carbonyl)picolinamide]: the IC50 on Cbl-b [1] was not above 10 µM; on Cbl-b [2], 3 to 10 µM.
The corresponding values for `CC(Sc1nncn1C)c1cccc(N2Cc3ccc(C(C)(C)O)cc3C2=O)c1` (centres unmarked) [Compound 165, 6-(1-hydroxy-1-methyl-ethyl)-2-[3-[1-[(4-methyl-1,2,4-triazol-3-yl)sulfanyl]ethyl]phenyl]isoindolin-1-one] are not above 10 µM and 3 to 10 µM.
Taken in the same sequence, the figures for `CNC(=O)c1ccc2c(c1)C(=O)N(c1cc(C(C)Sc3nncn3C)ccn1)C2` (centres unmarked) [Compound 173, N-methyl-2-(4-[1-[(4-methyl-4H-1,2,4-triazol-3-yl)sulfanyl]ethyl]pyridin-2-yl)-3-oxo-2,3-dihydro-1H-isoindole-5-carboxamide] were not above 10 µM and 3 to 10 µM.
Turning to `CC(Sc1nncn1C)c1cc(NCCO)nc(N2Cc3c(cccc3C(F)(F)F)C2=O)c1` (centres unmarked) [Compound 174, 2-[6-(2-hydroxyethylamino)-4-[1-[(4-methyl-1,2,4-triazol-3-yl)sulfanyl]ethyl]-2-pyridyl]-4-(trifluoromethyl)isoindolin-1-one], the IC50 at Cbl-b [1] is not above 10 µM; on Cbl-b [2], 1 to 3 µM.
As for `C[C@H](Cc1nncn1C)c1cccc(NC(=O)c2ccn(C)n2)c1` [Compound 197, (R)-1-methyl-N-(3-(1-(4-methyl-4H-1,2,4-triazol-3-yl)propan-2-yl)phenyl)-1H-pyrazole-3-carboxamide], the IC50 was not above 10 µM at Cbl-b [1] and 1 to 3 µM on Cbl-b [2].
Taken in the same sequence, the figures for `Cc1conc1C[C@H](C)c1cccc(NC(=O)c2ccnc(C(F)(F)F)n2)c1` [Compound 213b, (S)-N-(3-(1-(4-methylisoxazol-3-yl)propan-2-yl)phenyl)-2-(trifluoromethyl)pyrimidine-4-carboxamide] were not above 10 µM and 3 to 10 µM.
Taken in the same sequence, the figures for `Cc1ccn(CC(C)c2cccc(NC(=O)c3cccc(C(F)(F)F)n3)c2)n1` (centres unmarked) [Compound 216, N-(3-(1-(3-methyl-1H-pyrazol-1-yl)propan-2-yl)phenyl)-6-(trifluoromethyl)picolinamide] were not above 10 µM and 3 to 10 µM.
Consider `Cc1nnnn1CC(C)c1cccc(NC(=O)c2cccc(C(F)(F)F)n2)c1` (centres unmarked) [Compound 217, N-[3-[1-methyl-2-(5-methyltetrazol-1-yl)ethyl]phenyl]-6-(trifluoromethyl)pyridine-2-carboxamide], for which the half-maximal inhibitory concentration (IC50) is not above 10 µM on Cbl-b [1] and more than 10 µM on Cbl-b [2].
The corresponding values for `Cc1cnnn1CC(C)c1cccc(NC(=O)c2cccc(C(F)(F)F)n2)c1` (centres unmarked) [Compound 218, N-[3-[1-methyl-2-(5-methyltriazol-1-yl)ethyl]phenyl]-6-(trifluoromethyl)pyridine-2-carboxamide] are not above 0.5 µM and 0.301 to 1 µM.
For the molecule `CC(Cn1[nH]cnc1=O)c1cccc(NC(=O)c2cccc(C(F)(F)F)n2)c1` (centres unmarked) [Compound 219, N-[3-[1-methyl-2-(3-oxo-1H-1,2,4-triazol-2-yl)ethyl]phenyl]-6-(trifluoromethyl)pyridine-2-carboxamide], the IC50 on Cbl-b [1] was not above 10 µM; at Cbl-b [2], 3 to 10 µM.
Regarding `C[C@H](Cc1nncn1C)c1cccc(NC(=O)c2cc(C(=O)NC3CCOC3)ccn2)c1` (stereo partly drawn) [Compound 228, N2-(3-((R)-1-(4-methyl-4H-1,2,4-triazol-3-yl)propan-2-yl)phenyl)-N4-(tetrahydrofuran-3-yl)pyridine-2,4-dicarboxamide], the IC50 on Cbl-b [1] is not above 10 µM; at Cbl-b [2], 3 to 10 µM.
Taken in the same sequence, the figures for `C[C@H](Cc1nncn1C)c1cccc(NC(=O)c2cc(C(=O)N3CC[C@@](C)(N)C3)ccn2)c1` [Compound 230, 4-((R)-3-amino-3-methylpyrrolidine-1-carbonyl)-N-(3-((R)-1-(4-methyl-4H-1,2,4-triazol-3-yl)propan-2-yl)phenyl)picolinamide 2,2,2-trifluoroacetate] were not above 10 µM and 3 to 10 µM.
The corresponding values for `C[C@H](Cc1nncn1C)c1cccc(NC(=O)c2cc(C(=O)N3CC(CO)C3)ccn2)c1` [Compound 232, 4-[3-(hydroxymethyl)azetidine-1-carbonyl]-N-[3-[(2R)-1-(4-methyl-4H-1,2,4-triazol-3-yl)propan-2-yl]phenyl]pyridine-2-carboxamide] are not above 10 µM and 1 to 3 µM.
The corresponding values for `C[C@H](Cc1nncn1C)c1cccc(NC(=O)c2cc(C(=O)N3CCC4(CCO4)C3)ccn2)c1` (stereo partly drawn) [Compound 237, N-[3-[(2R)-1-(4-methyl-4H-1,2,4-triazol-3-yl)propan-2-yl]phenyl]-4-[1-oxa-6-azaspiro[3.4]octane-6-carbonyl]pyridine-2-carboxamide] are not above 10 µM and 3 to 10 µM.
With `C[C@H](Cc1ncco1)c1cccc(N2Cc3c(cccc3C(F)(F)F)C2=O)c1` [Compound 261, (R)-2-(3-(1-(oxazol-2-yl)propan-2-yl)phenyl)-4-(trifluoromethyl)isoindolin-1-one], the IC50 was not above 10 µM on Cbl-b [1] and 3 to 10 µM on Cbl-b [2].
Turning to `CC(Cc1nccn1C)c1cccc(N2Cc3c(cccc3C(F)(F)F)C2=O)c1` (centres unmarked) [Compound 267, 2-(3-(1-(1-methyl-1H-imidazol-2-yl)propan-2-yl)phenyl)-4-(trifluoromethyl)isoindolin-1-one], the concentration for half-maximal inhibition (IC50) at Cbl-b [1] was not above 10 µM; on Cbl-b [2] it was 3 to 10 µM.
Regarding `CC(Cc1nocc1CO)c1cccc(N2Cc3c(cccc3C(F)(F)F)C2=O)c1` (centres unmarked) [Compound 269, 2-(3-(1-(4-(hydroxymethyl)isoxazol-3-yl)propan-2-yl)phenyl)-4-(trifluoromethyl)isoindolin-1-one], the results for the half-maximal inhibitory concentration (IC50) at Cbl-b [1] and on Cbl-b [2] were not above 10 µM and 1 to 3 µM, respectively.
Taken in the same sequence, the figures for `C[C@H](Cc1n[nH]cc1CO)c1cccc(N2Cc3c(cccc3C(F)(F)F)C2=O)c1` [Compound 271b, (R)-2-(3-(1-(4-(hydroxymethyl)-1H-pyrazol-3-yl)propan-2-yl)phenyl)-4-(trifluoromethyl)isoindolin-1-one] were not above 10 µM and 1 to 3 µM.
Taken in the same sequence, the figures for `CC(Cc1nncn1C)c1cc(F)cc(N2Cc3c(cccc3C(F)(F)F)C2=O)c1` (centres unmarked) [Compound 281] were not above 0.5 µM and 0.1 to 0.3 µM.
Taken in the same sequence, the figures for `Cn1cnnc1CC(C)(C)c1cccc(NC(=O)c2ccnc(C(F)(F)F)n2)c1` [Compound 285, N-(3-(2-methyl-1-(4-methyl-4H-1,2,4-triazol-3-yl)propan-2-yl)phenyl)-2-(trifluoromethyl)pyrimidine-4-carboxamide] were not above 0.5 µM and 0.1 to 0.3 µM.
Regarding `Cc1ccc(C(=O)Nc2cccc([C@H](C)[C@H](O)c3nncn3C)c2)nc1C1CC1` [Compound 288, Trans-6-cyclopropyl-N-(3-(1-hydroxy-1-(4-methyl-4H-1,2,4-triazol-3-yl)propan-2-yl)phenyl)-5-methylpicolinamide], the IC50 was not above 10 µM on Cbl-b [1] and 3 to 10 µM at Cbl-b [2].
Take `COC(Cc1nncn1C)c1cccc(N2Cc3c(cccc3C(F)(F)F)C2=O)c1` (centres unmarked) [Compound 290, 2-(3-(1-methoxy-2-(4-methyl-4H-1,2,4-triazol-3-yl)ethyl)phenyl)-4-(trifluoromethyl)isoindolin-1-one]: the IC50 was not above 10 µM at Cbl-b [1] and 1 to 3 µM on Cbl-b [2].
